{"source": "ChEMBL document CHEMBL1201862", "about": "“PubChem BioAssay data set” (2004)", "key": {"[1]": {"molecular_target": "T1, Heat shock factor protein 1 (Mus musculus, UniProt P38532)", "T1 sequence (P38532 whole entry)": "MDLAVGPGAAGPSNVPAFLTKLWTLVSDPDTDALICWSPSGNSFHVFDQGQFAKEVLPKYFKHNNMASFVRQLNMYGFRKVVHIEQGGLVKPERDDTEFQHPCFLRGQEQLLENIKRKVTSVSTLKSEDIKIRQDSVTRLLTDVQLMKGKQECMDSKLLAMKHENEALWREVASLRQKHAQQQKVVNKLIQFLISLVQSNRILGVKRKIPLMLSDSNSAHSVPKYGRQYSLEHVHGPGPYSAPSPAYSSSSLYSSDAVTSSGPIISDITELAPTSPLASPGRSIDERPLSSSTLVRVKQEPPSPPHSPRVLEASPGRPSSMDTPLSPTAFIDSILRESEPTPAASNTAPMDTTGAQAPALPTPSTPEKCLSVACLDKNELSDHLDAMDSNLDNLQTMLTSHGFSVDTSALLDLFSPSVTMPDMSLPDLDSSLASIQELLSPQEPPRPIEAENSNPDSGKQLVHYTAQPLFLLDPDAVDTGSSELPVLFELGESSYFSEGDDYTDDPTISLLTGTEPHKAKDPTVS", "test": "inhibition of MG132-induced HSE-luciferase signal, confirmation, cell-based, NIH3T3, luminescence, dose retest (AID 2382);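 also: NIH3T3 fibroblasts with HSF1-driven luciferase reporter stressed by proteasome inhibitor MG132; luminescence from HSF1-driven luciferase expression after 8 hours of MG132 stress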", "format": "functional"}, "INS1": {"system": "INS1", "test": "beta cell apoptosis inhibitors, cytokine rescue, dose response, luminescence, retest (AID 449756);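 also: cell death triggered by IL-1 beta plus TNF-alpha plus IFN-gamma mixture; protective hits raise ATP signal compared with cytokine alone wells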", "format": "functional, cell-based", "details": "Rattus norvegicus"}, "Paired box protein Pax-8": {"molecular_target": "Paired box protein Pax-8 (Homo sapiens, UniProt Q06710)", "sequence (Q06710 whole entry)": "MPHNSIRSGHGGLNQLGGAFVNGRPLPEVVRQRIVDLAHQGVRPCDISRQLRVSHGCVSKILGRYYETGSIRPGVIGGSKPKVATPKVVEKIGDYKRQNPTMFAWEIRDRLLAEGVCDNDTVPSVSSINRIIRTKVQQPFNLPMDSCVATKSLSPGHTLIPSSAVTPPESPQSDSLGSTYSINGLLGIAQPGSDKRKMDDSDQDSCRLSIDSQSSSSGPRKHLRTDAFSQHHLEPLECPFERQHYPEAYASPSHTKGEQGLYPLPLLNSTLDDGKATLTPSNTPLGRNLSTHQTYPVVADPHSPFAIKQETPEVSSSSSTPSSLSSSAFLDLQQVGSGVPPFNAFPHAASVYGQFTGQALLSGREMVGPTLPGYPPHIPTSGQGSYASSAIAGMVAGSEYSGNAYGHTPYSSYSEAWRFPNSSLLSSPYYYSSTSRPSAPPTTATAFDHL", "test": "inhibitors of PAX8-driven TPO luciferase reporter, dose response, RMG-I cells, cherry-pick (AID 687027);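 also: luciferase reporter driven by Pax8 target thyroperoxidase promoter measured by SteadyGlo luminescence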", "format": "functional, cell-based"}, "[2]": {"test": "Luminescence Cell-Based Dose Retest to Confirm Inhibitors of Cancer Stem Cells. [Related pubchem assays (depositor defined):AID2717, AID2721]", "format": "functional", "details": "Homo sapiens"}, "[3]": {"system": "Streptococcus sp. 'group A'", "test": "growth inhibition of control SK(-) GAS strain, dose response, counter-screen for streptokinase expression inhibitor project, luminescence, kanamycin, BacTiterGlo, confirmation (AID 1900)", "format": "functional, organism-based"}, "Streptokinase A": {"molecular_target": "T2, Streptokinase A (Streptococcus pyogenes serotype M1, UniProt P10520)", "T2 sequence (P10520 whole entry)": "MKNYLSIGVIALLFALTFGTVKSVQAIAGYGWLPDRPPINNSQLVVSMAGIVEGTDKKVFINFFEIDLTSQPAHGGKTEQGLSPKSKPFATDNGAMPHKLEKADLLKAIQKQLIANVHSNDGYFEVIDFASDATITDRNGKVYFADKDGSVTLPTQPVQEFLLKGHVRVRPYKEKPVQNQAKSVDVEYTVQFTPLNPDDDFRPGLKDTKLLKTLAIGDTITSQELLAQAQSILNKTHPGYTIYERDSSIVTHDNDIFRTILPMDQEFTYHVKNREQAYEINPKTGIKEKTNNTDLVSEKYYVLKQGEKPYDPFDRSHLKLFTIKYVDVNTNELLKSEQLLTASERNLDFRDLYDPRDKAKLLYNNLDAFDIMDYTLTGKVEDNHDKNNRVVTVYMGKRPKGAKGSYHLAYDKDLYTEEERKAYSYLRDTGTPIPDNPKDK", "test": "S. pyogenes streptokinase expression inhibitors, potency, dose response, plasminogen activation absorbance, OD405 (AID 1914);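 also: secreted streptokinase activity via plasminogen activation per viability signal from cell pellet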", "format": "functional, Streptococcus pyogenes M1 GAS"}, "Streptococcus": {"system": "Streptococcus", "test": "Group A Streptococcus viability loss, dose response, counter-screen for streptokinase expression inhibitor project, luminescence, BacTiterGlo (AID 1915);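 also: potency for reduction of bacterial viability or growth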", "format": "functional, organism-based"}, "H4": {"system": "H4", "test": "Luminescence Cell-Based Dose Response HTS to Identify Activators of 5'UTR Stem-Loop Driven Prion Protein mRNA Translation in H4 Neuroglioblastoma Cells. [Related pubchem assays: 1829 (Project Summary), 1814 (Primary HTS)]", "format": "functional", "details": "Homo sapiens"}, "[4]": {"molecular_target": "T3, Ubiquitin-conjugating enzyme E2 N (Homo sapiens, UniProt P61088)", "T3 sequence (P61088 whole entry)": "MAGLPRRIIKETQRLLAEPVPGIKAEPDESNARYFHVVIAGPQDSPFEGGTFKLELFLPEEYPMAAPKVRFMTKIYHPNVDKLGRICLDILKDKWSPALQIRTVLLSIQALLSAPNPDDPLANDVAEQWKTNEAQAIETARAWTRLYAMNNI", "format": "functional"}, "[5]": {"test": "cytotoxicity toward NIH3T3 fibroblasts, dose response, counter-screen, cell-based, ATP luminescence, mouse fibroblasts (AID 2010);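 also: cells exposed to compound for about 90 hours before reading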", "format": "functional", "details": "NIH3T3"}, "[6]": {"test": "inhibitors of intracellular T. cruzi replication, confirmation, NIH3T3 host cells, beta-gal luminescence (AID 2044);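 also: luminescent beta-galactosidase reporter signal from transgenic T. cruzi replicating inside host cells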", "format": "functional, cell-based"}, "Cytochrome P450 3A4": {"molecular_target": "Cytochrome P450 3A4 (Homo sapiens, UniProt P08684)", "sequence (P08684 whole entry)": "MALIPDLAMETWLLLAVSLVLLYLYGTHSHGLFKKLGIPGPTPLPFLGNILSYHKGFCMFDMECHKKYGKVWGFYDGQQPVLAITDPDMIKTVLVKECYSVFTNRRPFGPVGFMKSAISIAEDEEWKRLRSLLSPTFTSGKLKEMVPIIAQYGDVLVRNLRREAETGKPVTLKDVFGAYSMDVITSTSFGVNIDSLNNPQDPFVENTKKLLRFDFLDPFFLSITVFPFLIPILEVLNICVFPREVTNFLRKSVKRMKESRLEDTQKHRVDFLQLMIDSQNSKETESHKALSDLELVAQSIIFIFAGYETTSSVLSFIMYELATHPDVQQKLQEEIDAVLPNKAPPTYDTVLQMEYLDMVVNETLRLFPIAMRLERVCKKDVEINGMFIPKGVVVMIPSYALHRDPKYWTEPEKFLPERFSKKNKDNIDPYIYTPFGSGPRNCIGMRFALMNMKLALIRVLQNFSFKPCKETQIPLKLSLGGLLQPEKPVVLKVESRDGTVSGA"}}, "note": "Activity calls are given as the source filed them. Rule as the data show it, for most assays here: actives have a measured EC50 and inactives only a lower limit.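 For IC50 in this document: Dose-response confirmation in a TR-FRET assay detecting UBC13-driven polyubiquitin chain formation, inhibition measured.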", "data": [{"molecule": "O=C(Nc1cccc(O)c1)c1cc(-c2ccccc2Cl)on1", "values": [{"measurement": "EC50", "setting": "[1]", "value": "> 195 µM (not active)"}]}, {"molecule": "COc1ccc(N2CCN(S(=O)(=O)c3cc4c(cc3C)N(C(C)=O)CCO4)CC2)cc1", "values": [{"measurement": "EC50", "setting": "[1]", "value": "> 195 µM (not active)"}]}, {"molecule": "CCC(CC)c1nc(C#N)c(NCc2ccccc2)o1", "values": [{"measurement": "EC50", "setting": "[1]", "value": "107 µM (active)"}]}, {"molecule": "CN(C(=O)CCNC(=O)Cn1cnc2ccccc2c1=O)c1ccccc1F", "values": [{"measurement": "EC50", "setting": "[1]", "value": "> 195 µM (not active)"}]}, {"molecule": "COC(=O)c1cc(S(=O)(=O)NCc2ccc(F)cc2)cn1C", "values": [{"measurement": "EC50", "setting": "[1]", "value": "> 195 µM (not active)"}]}, {"molecule": "O=C(N/N=C/c1cc(Br)c(O)c(Br)c1O)c1ccc2c(c1)OCCO2", "values": [{"measurement": "AC50", "setting": "INS1", "value": "3.1 µM (active)"}]}, {"molecule": "O=C(N/N=C/c1ccc(O)cc1)c1[nH]c2ccc(Br)cc2c1-c1ccccc1", "values": [{"measurement": "AC50", "setting": "Paired box protein Pax-8", "value": "4.43 µM (active)"}, {"measurement": "EC50", "setting": "[1]", "value": "11.4 µM (active)"}]}, {"molecule": "CCCSc1nsc(NC(=O)C(c2ccccc2)c2ccccc2)n1", "values": [{"measurement": "AC50", "setting": "[2]", "value": "2.87 µM (active)"}, {"measurement": "EC50", "setting": "[3]", "value": "2.73 µM (active)"}, {"measurement": "EC50", "setting": "Streptokinase A", "value": "11.3 µM (active)"}, {"measurement": "EC50", "setting": "Streptococcus", "value": "6.12 µM (active)"}]}, {"molecule": "Cc1noc(-c2ccc(C(F)(F)F)cc2)c1NC(=O)Nc1ccc(Cl)cc1", "values": [{"measurement": "AC50", "setting": "INS1", "value": "6.96 µM (active)"}]}, {"molecule": "COc1cccc(-c2ccc3c(c2)[C@@H]2[C@@H](CCN2S(=O)(=O)c2ccccc2C)[C@H](CO)N3C)c1", "values": [{"measurement": "AC50", "setting": "Paired box protein Pax-8", "value": "10.4 µM (active)"}]}, {"molecule": "COC(=O)[C@@H](Cc1ccccc1)N(Cc1ccccc1)S(=O)(=O)N(Cc1ccccc1)[C@H](Cc1ccccc1)C(=O)OC", "values": [{"measurement": "AC50", "setting": "INS1", "value": "3.91 µM (active)"}]}, {"molecule": "O=C(CCC(=O)c1ccc(Br)cc1)Nc1cccnc1", "values": [{"measurement": "EC50", "setting": "[1]", "value": "> 195 µM (not active)"}]}, {"molecule": "Cc1ccc(CNC(=O)/C=C/c2cccs2)cc1", "values": [{"measurement": "EC50", "setting": "H4", "value": "1.28 µM (active)"}]}, {"molecule": "CCOC(=O)N1CCc2c(sc(NC(=O)CN(CC)CC)c2C#N)C1", "values": [{"measurement": "IC50", "setting": "[4]", "value": "> 20 µM (inactive)"}]}, {"molecule": "CCCCCCc1cc2cc(C(=O)Nc3ccccc3)c(=O)oc2cc1O", "values": [{"measurement": "AC50", "setting": "INS1", "value": "3.15 µM (active)"}, {"measurement": "AC50", "setting": "[2]", "value": "0.257 µM (active)"}]}, {"molecule": "Cc1nc2ccc(S(=O)(=O)NC(C(=O)NCc3cccs3)C(C)C)cc2s1", "note": "(configuration not stated)", "values": [{"measurement": "EC50", "setting": "[1]", "value": "> 195 µM (not active)"}]}, {"molecule": "COc1ccc(C(=O)c2c[nH]cc2-c2ccccc2)cc1", "values": [{"measurement": "EC50", "setting": "[1]", "value": "> 195 µM (not active)"}]}, {"molecule": "Cc1ccc(NC(=S)NNC(=O)c2nnn(-c3ccccc3)c2C)cc1", "values": [{"measurement": "IC50", "setting": "[4]", "value": "> 20 µM (inactive)"}]}, {"molecule": "Cc1c(C)n(Cc2ccccc2)c2ncnc(N)c12", "values": [{"measurement": "IC50", "setting": "[4]", "value": "> 20 µM (inactive)"}]}, {"molecule": "NC(=O)c1ccccc1OC1CCC1", "values": [{"measurement": "AC50", "setting": "INS1", "value": "> 260 µM (inactive)"}]}, {"molecule": "CCCNCC1C(Oc2ccc(Cl)cc2Cl)C(=O)N1c1cccc(C)c1C", "note": "(configuration not stated)", "values": [{"measurement": "EC50", "setting": "[5]", "value": "> 60 µM (not active)"}, {"measurement": "EC50", "setting": "[6]", "value": "3.52 µM (active)"}, {"measurement": "AC50", "setting": "[2]", "value": "5.78 µM (active)"}]}, {"molecule": "CCc1ccc(C2CC(c3cccc(Cl)c3)n3nc(N)nc3N2)cc1", "note": "(configuration not stated)", "values": [{"measurement": "AC50", "setting": "INS1", "value": "> 120 µM (inactive)"}]}, {"molecule": "Cc1nn(Cc2ccc(Cl)cc2)c(C)c1NC(=O)c1cc(-c2ccc3c(c2)OCO3)on1", "values": [{"measurement": "EC50", "setting": "[5]", "value": "3.87 µM (active)"}, {"measurement": "EC50", "setting": "[6]", "value": "1.99 µM (active)"}, {"measurement": "AC50", "setting": "[2]", "value": "0.486 µM (active)"}]}, {"molecule": "COc1ccc(NC(=O)c2[nH]cnc2C(=O)NCc2ccccc2)cc1", "values": [{"measurement": "IC50", "setting": "[4]", "value": "> 20 µM (inactive)"}]}, {"molecule": "COc1ccc(Br)cc1CNC(=O)CCN1C(=O)COc2ccccc21", "values": [{"measurement": "EC50", "setting": "[1]", "value": "> 195 µM (not active)"}]}, {"molecule": "Cc1nc(NC(C)c2ccccc2)sc1C(=O)Nc1ccccc1", "note": "(configuration not stated)", "values": [{"measurement": "EC50", "setting": "[1]", "value": "> 195 µM (not active)"}]}, {"molecule": "Cc1ccc(CSCC(=O)N(C)CC(=O)Nc2ccc(C)cc2)cc1", "values": [{"measurement": "EC50", "setting": "[1]", "value": "> 195 µM (not active)"}]}, {"molecule": "CCCCCCCCCCS(=O)(=O)N/N=C/c1ccc([N+](=O)[O-])cc1", "values": [{"measurement": "AC50", "setting": "[2]", "value": "8.29 µM (active)"}]}, {"molecule": "COc1cc(OC)cc(-c2sc3ccc(OC)cc3c2-c2ccc(O)cc2)c1", "values": [{"measurement": "AC50", "setting": "[2]", "value": "2.46 µM (active)"}]}, {"molecule": "COc1ccccc1C(=O)Nc1nnc(SCC(=O)NCC2CCCO2)s1", "note": "(configuration not stated)", "values": [{"measurement": "EC50", "setting": "[3]", "value": "> 150 µM (not active)"}, {"measurement": "EC50", "setting": "Streptokinase A", "value": "> 150 µM (not active)"}, {"measurement": "EC50", "setting": "Streptococcus", "value": "> 150 µM (not active)"}, {"measurement": "EC50", "setting": "H4", "value": "> 120 µM (not active)"}]}, {"molecule": "O=C1CC(Nc2ccccc2)=NN1c1ccccc1", "values": [{"measurement": "AC50", "setting": "Cytochrome P450 3A4", "value": "28.2 µM (inconclusive)"}, {"measurement": "AC50", "setting": "[2]", "value": "3.96 µM (active)"}]}, {"molecule": "CCCCNC(=O)C(Sc1ccccc1)c1ccccc1", "note": "(configuration not stated)", "values": [{"measurement": "AC50", "setting": "Paired box protein Pax-8", "value": "65.4 µM (active)"}]}, {"molecule": "NN=C(S)Nc1ccccc1Cl", "values": [{"measurement": "EC50", "setting": "[1]", "value": "> 195 µM (not active)"}]}, {"molecule": "CSCCC(NC(=O)c1ccccc1Br)C(=O)NNC(=O)c1csc(N2CCOCC2)n1", "note": "(configuration not stated)", "values": [{"measurement": "IC50", "setting": "[4]", "value": "> 20 µM (inactive)"}]}]}
